The source of these data is publication PMC10251509, “Ultrafast Fragment Screening Using Photo-Hyperpolarized (CIDNP) NMR” (Journal of the American Chemical Society, 2023).

Test [1] concerns the target T1, PIN1 (Homo sapiens, UniProt Q13526).
T1 construct: polyhistidine (N); made in house; host or cells: Escherichia coli BL21 (DE3)
Briefly: automated flow-through photo-CIDNP 1D 1H NMR screening against PIN1. It is filed as binding. The settings on record: flow cell, 50 μM compound, 20 μM PIN1, 1.5 s irradiation. From the text: While several other hyperpolarization methods yield higher SNE and have been established for ligand binding detection, their implementation into a highly automated system remains challenging.[43],[44] Photo-CIDNP hyperpolarization presents the advantage of being generated in situ, at room temperature, in solution, simply by shining light on the sample. To illustrate the agility of the photo-CIDNP ligand screening approach, we designed a flow-through setup compatible with a cryoprobe (Figure 7C). The setup consists of a pump, an autosampler, a valve, and a 3D printed flow cell (Figure 7B,C), which comprises an optic fiber for light irradiation coming from a 1.6 W diode laser emitting at 450 nm from Thorlabs. […] (iv) While the flow is stopped, a photo-CIDNP ^1H 1D NMR spectrum is recorded, as described above. […]
Figure 7 Automated screening of PIN1 with Nmhare1.0 library using photo-CIDNP 1D ^1H NMR. […] The photo-CIDNP NMR experiment is then recorded with the pulse program triggering light irradiation, and subsequently performing the NMR experiment acquisition, the NMR experiment can comprehend different numbers of transients (NS) and indirect time dimension points (TD) that will increase the measurement time accordingly; finally, the sample is washed by restoring the flow in the fluidic connection. […]

Test [2] concerns the target T1, PIN1. Briefly: [15N,1H]-HSQC hit validation (chemical shift perturbations) on 15N-labeled PIN1. It is filed as binding. The settings on record: 50 μM 15N-labeled PIN1, 200 μM fragment. On the procedure:
As proposed in the theoretical part, the photo-CIDNP traces were recorded in the presence and absence of PIN1. The peak intensity and chemical shifts were analyzed pairwise to identify the hits. […] The reference apo-PIN1 sample was spiked with 1.9 μL of DMSO to compensate for the DMSO that is introduced upon fragment addition, as the fragments are stored in stock solutions of 5 mM 90% DMSO-d6 and 10% D2O.
For the control binding experiments using ligand-induced chemical shift perturbation analysis, standard [^15N, ^1H]-HSQC spectra were measured. […] Processing was done with a shifted cosine window function for both dimensions. […] The spinlock times were set at 10 and 400 ms.

T1 sequence (Q13526 whole entry): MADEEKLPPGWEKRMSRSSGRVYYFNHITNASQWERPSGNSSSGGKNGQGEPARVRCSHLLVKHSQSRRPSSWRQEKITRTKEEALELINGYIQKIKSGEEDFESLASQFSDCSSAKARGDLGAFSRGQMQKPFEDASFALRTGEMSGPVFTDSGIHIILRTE

`Cc1cccc(-c2nc(C)c(C(=O)O)[nH]2)c1` [Compound 13, reference compound]: the “photo-CIDNP signal in presence vs absence of PIN1” value in test [1] is “signal reduction”. Besides, the “fragment-induced CSPs in [15N,1H]-HSQC” value in test [2] is “strong CSPs”. For the same compound, the “median CSP” value in test [2] (median only of signals showing CSP) is 0.119.
